According to patent US12209075B2, “Pyridine-sulfonamide derivatives as sodium channel inhibitors” (GENENTECH, INC., priority 2018, dated 2025):
Counter-ions that a name gives are not always drawn.

The compounds below were run against hNav1.7 (Homo sapiens (Human), UniProt Q15858) (assay: Tritiated compound binding to membranes from cells expressing hNav1.7 and the β1 subunit (Nav1.7 LBA EVO)). Conditions: competitive binding vs [3H]compound, membranes with hNav1.7 and β1 subunit.
Description: Example 64a. Tritiated Compound Binding to Membranes Isolated from Cells that Heterologously Express hNav1.7 and the β1 Subunit
Preparation of membranes containing recombinantly expressed sodium channels: Frozen recombinant cell pellets are thawed on ice and diluted to 4 times the cell pellet weight with ice cold 50 mM Tris HCl, pH 7.4 buffer. The cell suspensions are homogenized on ice using a motorized glass dounce homogeniser. Homogenates are further diluted 8.4 times with ice cold 50 mM Tris HCl, pH 7.4 buffer and then centrifuged at 200×g at 4° C. for 15 minutes. The supernatants are collected and centrifuged at 10000×g at 4° C. for 50 min. The pellets are then re-suspended in 100 mM NaCl, 20 mM Tris HCl, pH 7.4 buffer containing 1% v/v protease inhibitors (Calbiochem) and re-homogenized on ice. The homogenized membranes are then processed through a syringe equipped with a 26 gauge needle. Protein concentrations arer determined by Bradford Assay and the membranes are stored at −80° C.
Radioligand Binding Studies: Saturation experiments. A competitive NaV1.7 inhibitor having a methyl group is tritiated. Three tritiums are incorporated in place of methyl hydrogens to generate [^3H]compound. Binding of this radioligand is performed in 5 mL borosilicate glass test tubes at room temperature. Binding is initiated by adding membranes to increasing concentrations of [^3H]compound in 100 mM NaCl, 20 mM Tris HCl, pH 7.4 buffer containing 0.01% w/v bovine serum albumin (BSA) for 18 h. Non-specific binding is determined in the presence of 1 μM unlabeled compound. After 18 h, the reactants are filtered through GF/C glass fiber filters presoaked in 0.5% w/v polyethylene imine. Filters are washed with 15 mL ice cold 100 mM NaCl, 20 mM Tris HCl, pH7.4 buffer containing 0.25% BSA to separate bound from free ligand. [^3H]compound bound to filters is quantified by liquid scintillation counting.
Competitive binding experiments: Binding reactions are performed in 96-well polypropylene plates at room temperature for 18 h. In 360 μL, membranes are incubated with 100 pM [^3H]compound and increasing concentrations of Test Compound. Non-specific binding is defined in the presence of 1 μM unlabeled compound. Reactions are transferred and filtered through 96-well glass fiber/C filter plates presoaked with 0.5% polyethylene imine. The filtered reactions are washed 5 times with 200 μL ice cold buffer containing 0.25% BSA. Bound radioactivity is determined by liquid scintillation counting.
Data Analysis: For saturation experiments, non-specific binding is subtracted from total binding to provide specific binding and these values are recalculated in terms of pmol ligand bound per mg protein. Saturation curves are constructed and dissociation constants are calculated using the single site ligand binding model: Beq=(Bmax*X)/(X+Kd), where Beq is the amount of ligand bound at equilibrium, Bmax is the maximum receptor density, Kd is the dissociation constant for the ligand, and X is the free ligand concentration. For competition studies percent inhibition is determined and IC50 values are calculated using a 4 parameter logistic model (% inhibition=(A+((B−A)/(1+((x/C)^D)))) using XLfit, where A and B are the maximal and minimum inhibition respectively, C is the IC50 concentration and D is the (Hill) slope.
Example 64b. Tritiated Compound Binding to Membranes Isolated from Cells that Heterologous Express hNav1.7 and the β1 Subunit
Preparation of membranes containing recombinantly expressed sodium channels: Following the procedure described in 31a, and making modifications as required to: centrifuge supernatants at 100000×g instead of 10000×g; re-suspend pellets in a buffer containing 0.01% BSA in addition to 100 mM NaCl, 20 mM Tris HCl, pH 7.4 buffer, and 1% v/v […]; and storing membranes at −80° C. in single use aliquots instead of pooled. […]

Sequence of hNav1.7 (Q15858 whole entry, looked up): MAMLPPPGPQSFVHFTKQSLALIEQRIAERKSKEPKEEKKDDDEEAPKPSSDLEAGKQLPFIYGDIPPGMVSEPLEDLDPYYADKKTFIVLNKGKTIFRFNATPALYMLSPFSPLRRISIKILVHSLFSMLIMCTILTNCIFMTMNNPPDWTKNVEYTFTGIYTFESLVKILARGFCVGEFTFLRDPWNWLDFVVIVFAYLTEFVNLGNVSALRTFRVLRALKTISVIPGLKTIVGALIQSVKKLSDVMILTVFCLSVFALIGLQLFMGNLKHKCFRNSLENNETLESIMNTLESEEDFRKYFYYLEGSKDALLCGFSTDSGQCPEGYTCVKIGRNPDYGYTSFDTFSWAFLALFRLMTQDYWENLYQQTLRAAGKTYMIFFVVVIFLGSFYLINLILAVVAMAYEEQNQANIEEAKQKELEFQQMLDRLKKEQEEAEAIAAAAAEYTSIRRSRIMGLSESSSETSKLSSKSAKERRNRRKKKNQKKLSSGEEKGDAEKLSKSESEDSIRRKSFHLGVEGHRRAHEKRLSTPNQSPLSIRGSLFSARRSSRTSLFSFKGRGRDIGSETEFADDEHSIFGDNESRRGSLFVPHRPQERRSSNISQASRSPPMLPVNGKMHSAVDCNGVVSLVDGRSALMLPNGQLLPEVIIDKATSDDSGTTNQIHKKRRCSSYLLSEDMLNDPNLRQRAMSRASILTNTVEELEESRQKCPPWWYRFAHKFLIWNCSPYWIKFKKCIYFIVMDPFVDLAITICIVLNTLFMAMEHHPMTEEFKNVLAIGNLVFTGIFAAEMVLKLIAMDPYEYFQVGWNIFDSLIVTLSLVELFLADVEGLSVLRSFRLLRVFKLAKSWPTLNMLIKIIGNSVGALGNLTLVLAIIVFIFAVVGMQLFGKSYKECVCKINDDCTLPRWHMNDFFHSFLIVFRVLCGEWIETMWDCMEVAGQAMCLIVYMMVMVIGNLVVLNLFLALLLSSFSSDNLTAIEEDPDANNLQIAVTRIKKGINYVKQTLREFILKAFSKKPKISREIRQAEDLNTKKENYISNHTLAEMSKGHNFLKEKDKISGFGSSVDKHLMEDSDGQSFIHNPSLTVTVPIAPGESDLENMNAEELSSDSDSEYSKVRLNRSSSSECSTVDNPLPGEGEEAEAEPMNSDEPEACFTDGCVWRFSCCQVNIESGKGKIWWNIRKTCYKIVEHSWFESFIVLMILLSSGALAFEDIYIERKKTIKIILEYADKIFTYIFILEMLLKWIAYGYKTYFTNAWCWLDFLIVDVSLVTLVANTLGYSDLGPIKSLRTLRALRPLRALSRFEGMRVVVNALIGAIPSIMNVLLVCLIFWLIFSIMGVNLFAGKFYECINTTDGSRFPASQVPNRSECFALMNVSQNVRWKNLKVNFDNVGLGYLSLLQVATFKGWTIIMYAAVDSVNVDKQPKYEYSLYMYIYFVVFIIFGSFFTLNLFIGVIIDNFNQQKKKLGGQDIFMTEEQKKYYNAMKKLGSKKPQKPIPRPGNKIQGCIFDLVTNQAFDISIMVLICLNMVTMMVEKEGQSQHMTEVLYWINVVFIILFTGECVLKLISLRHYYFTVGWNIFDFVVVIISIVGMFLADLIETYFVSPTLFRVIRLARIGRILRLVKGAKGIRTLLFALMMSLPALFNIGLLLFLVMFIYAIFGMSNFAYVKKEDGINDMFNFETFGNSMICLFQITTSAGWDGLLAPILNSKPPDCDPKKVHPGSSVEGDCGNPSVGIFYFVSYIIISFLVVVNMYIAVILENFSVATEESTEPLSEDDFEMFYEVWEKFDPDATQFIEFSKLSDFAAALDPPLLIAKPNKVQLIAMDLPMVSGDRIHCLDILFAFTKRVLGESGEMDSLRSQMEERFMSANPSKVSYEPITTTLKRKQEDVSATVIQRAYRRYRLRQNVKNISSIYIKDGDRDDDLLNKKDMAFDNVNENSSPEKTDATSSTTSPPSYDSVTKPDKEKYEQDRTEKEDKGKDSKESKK
Sequence of hNav1.7 (Q07699 whole entry partner, looked up): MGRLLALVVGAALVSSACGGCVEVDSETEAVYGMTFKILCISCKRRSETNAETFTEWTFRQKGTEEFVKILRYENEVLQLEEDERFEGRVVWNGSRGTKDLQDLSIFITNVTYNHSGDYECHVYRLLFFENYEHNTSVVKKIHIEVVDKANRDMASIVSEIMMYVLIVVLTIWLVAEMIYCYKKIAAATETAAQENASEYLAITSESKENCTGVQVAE

| Compound | IC50 [nM] |
| --- | --- |
| CN(C)[C@H]1C[C@@H](c2cccc(OC(F)(F)F)c2)CC[C@@H]1Oc1ccc(S(=O)(=O)Nc2ccncn2)cn1 [Example 25, 6-(((1S,2S,4S)-2-(dimethylamino)-4-(3-(trifluoromethoxy)phenyl)cyclohexyl)oxy)-N-(pyrimidin-4-yl)pyridine-3-sulfonamide formate] | 44.8 |
| O=S(=O)(Nc1ccncn1)c1ccc(O[C@H]2CC[C@H](c3cccc(C(F)(F)F)c3)C[C@@H]2N2CCCCC2)nc1 [Example 26, 6-(((1S,2S,4S)-2-(piperidin-1-yl)-4-(3-(trifluoromethyl)phenyl)cyclohexyl)oxy)-N-(pyrimidin-4-yl)pyridine-3-sulfonamide] | 4.88 |
| Cc1nc(O[C@H]2CC[C@H](c3cccc(OC(F)(F)F)c3)C[C@@H]2N(C)C)ccc1S(=O)(=O)Nc1ccncn1 [Example 28, 6-(((1S,2S,4S)-2-(Dimethylamino)-4-(3-(trifluoromethoxy)phenyl)cyclohexyl)oxy)-2-methyl-N-(pyrimidin-4-yl)pyridine-3-sulfonamide] | 4.11 |
| Cc1nc(O[C@H]2CC[C@H](c3cccc(C(F)(F)F)c3)C[C@@H]2N2CCCC2)ccc1S(=O)(=O)Nc1ccncn1 [Example 29, 2-Methyl-N-(pyrimidin-4-yl)-6-(((1S,2S,4S)-2-(pyrrolidin-1-yl)-4-(3-(trifluoromethyl)phenyl)-cyclohexyl)oxy)pyridine-3-sulfonamide] | 67.4 |
| Cc1nc(O[C@H]2CC[C@H](c3cccc(OC(F)(F)F)c3)C[C@@H]2N2CCCC2)ccc1S(=O)(=O)Nc1ccncn1 [Example 30, 2-Methyl-N-(pyrimidin-4-yl)-6-(((1S,2S,4S)-2-(pyrrolidin-1-yl)-4-(3-(trifluoromethoxy)phenyl)-cyclohexyl)oxy)pyridine-3-sulfonamide] | 16.6 |
| CN(C)[C@H]1C[C@@H](c2cccc(C(F)(F)F)c2)CC[C@@H]1Oc1cc(Cl)c(S(=O)(=O)Nc2ccncn2)cn1 [Example 31, 4-Chloro-6-(((1S,2S,4S)-2-(dimethylamino)-4-(3-(trifluoromethyl)phenyl)cyclohexyl)oxy)-N-(pyrimidin-4-yl)pyridine-3-sulfonamide] | 1.89 |
| Cc1cc(O[C@H]2CC[C@H](c3cccc(C(F)(F)F)c3)C[C@@H]2N(C)C)ncc1S(=O)(=O)Nc1ccncn1 [Example 32, 6-(((1S,2S,4S)-2-(Dimethylamino)-4-(3-(trifluoromethyl)phenyl)cyclohexyl)oxy)-4-methyl-N-(pyrimidin-4-yl)pyridine-3-sulfonamide] | 2.07 |
| CCc1nc(O[C@H]2CC[C@H](c3cccc(C(F)(F)F)c3)C[C@@H]2N(C)C)ccc1S(=O)(=O)Nc1ccncn1 [Example 33, 6-(((1S,2S,4S)-2-(Dimethylamino)-4-(3-(trifluoromethyl)phenyl)cyclohexyl)oxy)-2-ethyl-N-(pyrimidin-4-yl)pyridine-3-sulfonamide] | 1.54 |
| CN(C)[C@H]1C[C@@H](c2cccc(C(F)(F)F)c2)CC[C@@H]1Oc1ccc(S(=O)(=O)Nc2ccncn2)c(C2CC2)n1 [Example 34, 2-Cyclopropyl-6-(((1S,2S,4S)-2-(dimethylamino)-4-(3-(trifluoromethyl)phenyl)-cyclohexyl)oxy)-N-(pyrimidin-4-yl)pyridine-3-sulfonamide] | 1.15 |
| Cc1nc(O[C@H]2CC[C@H](c3cccc(C(F)(F)F)c3)C[C@@H]2N(C)C2CCC2)ccc1S(=O)(=O)Nc1ccncn1 [Example 35, 6-(((1S,2S,4S)-2-(Cyclobutyl(methyl)amino)-4-(3-(trifluoromethyl)phenyl)cyclohexyl)oxy)-2-methyl-N-(pyrimidin-4-yl)pyridine-3-sulfonamide] | 1.12 |
| Cc1nc(O[C@H]2CC[C@H](c3ccc(Cl)c(C(F)(F)F)c3)C[C@@H]2N(C)C)ccc1S(=O)(=O)Nc1ccncn1 [Example 36, 6-(((1S,2S,4S)-4-(4-chloro-3-(trifluoromethyl)phenyl)-2-(dimethylamino)cyclohexyl)oxy)-2-methyl-N-(pyrimidin-4-yl)pyridine-3-sulfonamide] | 1.28 |
| Cc1nc(O[C@H]2CC[C@H](c3cc(C(F)(F)F)ccc3Cl)C[C@@H]2N(C)C)ccc1S(=O)(=O)Nc1ccncn1 [Example 38, 6-(((1S,2S,4S)-4-(2-chloro-5-(trifluoromethyl)phenyl)-2-(dimethylamino)cyclohexyl)oxy)-2-methyl-N-(pyrimidin-4-yl)pyridine-3-sulfonamide] | 1.77 |
| Cc1nc(O[C@H]2CC[C@H](c3cc(Cl)ccc3Cl)C[C@@H]2N(C)C)ccc1S(=O)(=O)Nc1ccncn1 [Example 39, 6-(((1S,2S,4S)-4-(2,5-dichlorophenyl)-2-(dimethylamino)cyclohexyl)oxy)-2-methyl-N-(pyrimidin-4-yl)pyridine-3-sulfonamide formate] | 0.935 |
| O=S(=O)(Nc1ccncn1)c1cnc(O[C@H]2CC[C@H](c3cccc(C(F)(F)F)n3)C[C@@H]2N2CCCC2)c(Cl)c1 [Example 40, 5-chloro-N-(pyrimidin-4-yl)-6-(((1S,2S,4S)-2-(pyrrolidin-1-yl)-4-(6-(trifluoromethyl)pyridin-2-yl)cyclohexyl)oxy)pyridine-3-sulfonamide] | 0.955 |
| Cc1nc(O[C@H]2CC[C@H](c3cc(F)cc(C(F)(F)F)c3)C[C@@H]2N(C)C)ccc1S(=O)(=O)Nc1ccncn1 [Example 42, 6-(((1S,2S,4S)-2-(Dimethylamino)-4-(3-fluoro-5-(trifluoromethyl)phenyl)cyclohexyl)oxy)-2-methyl-N-(pyrimidin-4-yl)pyridine-3-sulfonamide] | 0.72 |
| CN(C)[C@H]1C[C@@H](c2cc(C(F)(F)F)ccc2F)CC[C@@H]1Oc1ccc(S(=O)(=O)Nc2ccncn2)c(Cl)n1 [Example 44, 2-Chloro-6-(((1S,2S,4S)-2-(dimethylamino)-4-(2-fluoro-5-(trifluoromethyl)phenyl)-cyclohexyl)oxy)-N-(pyrimidin-4-yl)pyridine-3-sulfonamide formate] | 0.72 |
| Cc1nc(O[C@H]2CC[C@H](c3ccc(F)c(C(F)(F)F)c3)C[C@@H]2N(C)C)ccc1S(=O)(=O)Nc1ccncn1 [Example 45, 6-(((1S,2S,4S)-2-(Dimethylamino)-4-(4-fluoro-3-(trifluoromethyl)phenyl)cyclohexyl)oxy)-2-methyl-N-(pyrimidin-4-yl)pyridine-3-sulfonamide formate] | 0.913 |
| CCN(CC)[C@H]1C[C@@H](c2cccc(C(F)(F)F)c2)CC[C@@H]1Oc1ccc(S(=O)(=O)Nc2ccncn2)c(C)n1 [Example 47, 6-(((1S,2S,4S)-2-(Diethylamino)-4-(3-(trifluoromethyl)phenyl)cyclohexyl)oxy)-2-methyl-N-(pyrimidin-4-yl)pyridine-3-sulfonamide] | 0.915 |
| CCN(C)[C@H]1C[C@@H](c2cccc(C(F)(F)F)c2)CC[C@@H]1Oc1ccc(S(=O)(=O)Nc2ccncn2)c(C)n1 [Example 48, 6-(((1S,2S,4S)-2-(Ethyl(methyl)amino)-4-(3-(trifluoromethyl)phenyl)cyclohexyl)oxy)-2-methyl-N-(pyrimidin-4-yl)pyridine-3-sulfonamide] | 0.75 |
| Cc1nc(O[C@H]2CC[C@H](c3cc(Cl)cc(C(F)(F)F)c3)C[C@@H]2N(C)C)ccc1S(=O)(=O)Nc1ccncn1 [Example 49, 6-(((1S,2S,4S)-4-(3-chloro-5-(trifluoromethyl)phenyl)-2-(dimethylamino)cyclohexyl)oxy)-2-methyl-N-(pyrimidin-4-yl)pyridine-3-sulfonamide] | 1.2 |
| Cc1nc(O[C@H]2CC[C@H](c3cccc(OC(F)F)c3)C[C@@H]2N(C)C)ccc1S(=O)(=O)Nc1ccncn1 [Example 52, 6-(((1S,2S,4S)-4-(3-(difluoromethoxy)phenyl)-2-(dimethylamino)cyclohexyl)oxy)-2-methyl-N-(pyrimidin-4-yl)pyridine-3-sulfonamide] | 0.615 |
